The source of these data is patent US8697739B2, “Bicyclic acetyl-CoA carboxylase inhibitors and uses thereof” (Novartis AG, priority 2010, dated 2014).

What is called IC50 is the midpoint of a concentration-inhibition curve.

T1 sequence (O00763 144-2458): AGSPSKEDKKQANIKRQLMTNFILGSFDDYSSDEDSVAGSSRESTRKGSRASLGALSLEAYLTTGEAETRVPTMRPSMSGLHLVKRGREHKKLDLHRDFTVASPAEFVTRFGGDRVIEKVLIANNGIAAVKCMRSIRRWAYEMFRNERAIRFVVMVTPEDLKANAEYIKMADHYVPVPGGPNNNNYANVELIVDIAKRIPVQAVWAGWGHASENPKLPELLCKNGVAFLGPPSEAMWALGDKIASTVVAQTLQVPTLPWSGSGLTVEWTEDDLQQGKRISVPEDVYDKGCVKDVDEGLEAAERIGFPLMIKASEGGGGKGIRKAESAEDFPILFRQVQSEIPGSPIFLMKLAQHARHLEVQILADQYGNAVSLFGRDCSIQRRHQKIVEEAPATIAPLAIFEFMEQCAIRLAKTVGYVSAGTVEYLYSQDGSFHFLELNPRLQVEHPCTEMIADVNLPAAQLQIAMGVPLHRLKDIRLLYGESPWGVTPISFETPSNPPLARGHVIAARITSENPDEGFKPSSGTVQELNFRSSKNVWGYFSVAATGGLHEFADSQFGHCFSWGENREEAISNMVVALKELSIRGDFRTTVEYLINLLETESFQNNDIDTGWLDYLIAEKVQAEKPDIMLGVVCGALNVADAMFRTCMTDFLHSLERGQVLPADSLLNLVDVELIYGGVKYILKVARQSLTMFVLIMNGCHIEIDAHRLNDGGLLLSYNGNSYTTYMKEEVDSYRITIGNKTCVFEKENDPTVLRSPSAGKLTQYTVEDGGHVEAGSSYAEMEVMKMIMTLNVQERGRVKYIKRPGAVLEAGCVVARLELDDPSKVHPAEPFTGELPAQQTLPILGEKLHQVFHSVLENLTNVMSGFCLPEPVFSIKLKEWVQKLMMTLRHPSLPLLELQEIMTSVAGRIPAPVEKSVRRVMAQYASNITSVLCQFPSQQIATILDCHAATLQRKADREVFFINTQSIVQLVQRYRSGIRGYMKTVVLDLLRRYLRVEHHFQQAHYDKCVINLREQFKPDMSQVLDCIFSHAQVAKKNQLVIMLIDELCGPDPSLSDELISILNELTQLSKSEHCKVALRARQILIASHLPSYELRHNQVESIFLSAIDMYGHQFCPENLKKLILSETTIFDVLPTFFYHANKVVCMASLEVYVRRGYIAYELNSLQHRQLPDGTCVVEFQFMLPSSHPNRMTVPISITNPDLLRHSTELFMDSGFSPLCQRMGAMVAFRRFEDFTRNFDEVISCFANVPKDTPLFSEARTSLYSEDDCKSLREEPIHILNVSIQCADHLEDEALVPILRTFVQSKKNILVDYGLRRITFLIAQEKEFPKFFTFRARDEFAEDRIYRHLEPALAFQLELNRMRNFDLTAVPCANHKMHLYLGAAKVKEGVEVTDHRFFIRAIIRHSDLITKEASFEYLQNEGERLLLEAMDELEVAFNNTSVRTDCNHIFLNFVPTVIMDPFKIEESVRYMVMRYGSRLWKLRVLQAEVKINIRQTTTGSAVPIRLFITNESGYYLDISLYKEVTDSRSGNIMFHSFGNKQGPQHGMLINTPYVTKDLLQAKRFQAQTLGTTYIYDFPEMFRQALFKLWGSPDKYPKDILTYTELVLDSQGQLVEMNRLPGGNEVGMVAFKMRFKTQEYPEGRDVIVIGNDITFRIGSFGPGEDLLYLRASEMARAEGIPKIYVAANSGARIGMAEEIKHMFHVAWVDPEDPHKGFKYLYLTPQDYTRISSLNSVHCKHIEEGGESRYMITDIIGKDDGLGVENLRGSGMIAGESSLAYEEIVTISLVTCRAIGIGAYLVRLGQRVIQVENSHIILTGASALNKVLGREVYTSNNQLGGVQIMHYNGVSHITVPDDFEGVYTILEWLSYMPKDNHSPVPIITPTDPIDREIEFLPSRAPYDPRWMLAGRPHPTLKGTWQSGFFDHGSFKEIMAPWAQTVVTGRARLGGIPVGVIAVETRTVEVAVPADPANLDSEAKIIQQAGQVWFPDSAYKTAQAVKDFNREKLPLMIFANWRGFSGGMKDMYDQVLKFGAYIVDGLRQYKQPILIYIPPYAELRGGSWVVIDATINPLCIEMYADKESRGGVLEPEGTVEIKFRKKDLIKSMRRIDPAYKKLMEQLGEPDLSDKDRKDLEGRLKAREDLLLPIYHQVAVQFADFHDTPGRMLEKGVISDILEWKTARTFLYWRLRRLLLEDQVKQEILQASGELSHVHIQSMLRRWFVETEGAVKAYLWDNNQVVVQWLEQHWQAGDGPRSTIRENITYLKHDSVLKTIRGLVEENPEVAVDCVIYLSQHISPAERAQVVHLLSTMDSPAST

This experiment has as its target T1, human acetyl-CoA carboxylase 2 (ACC2) (Homo sapiens, UniProt O00763).
T1 construct: The cDNA encoding amino acids 144 to 2458 of human acetyl-CoA carboxylase 2; made in house; host or cells: Sf9 insect cells (baculovirus, pFastBac1)
The experiment is described as follows: Acetyl-CoA carboxylase enzyme assay (malonyl-CoA formation by LC/MS/MS). The experiment is classed as biochemical. The following applies: recombinant human ACC2 (aa 144-2458); read-out: IC50 ACC2. An excerpt:
The cDNA encoding amino acids 144 to 2458 of human acetyl-CoA carboxylase 2 (ACC2, GenBank Accession #NM_001093) was cloned into the SalI and NotI sites of pFastBac1 (Invitrogen; Carlsbad, Calif.). The resulting plasmid was used to generate a recombinant ACC2 baculovirus that was amplified and titered according to the protocols in the Bac-to-Bac baculovirus expression system manual (Invitrogen). The titered virus was used to infect Sf9 cells grown in Ex-Cell 420 serum-free medium (JRH Biosciences; Lenexa, Kans.). At 48 hours post-infection, the cells were harvested and stored at −80° C. until purification. ACC2 was purified using ammonium sulfate precipitation and anion exchange chromatography.
The enzymatic assay was run as follows: 30 μL of reaction buffer (100 mM HEPES pH 7.5, 20 mM MgCl2, 20 mM potassium citrate, 2 mM DTT) was added to a 384-well microtiter plate followed by 2 μL of the test compound (or 100% DMSO control). ACC2 protein (10 μL of a 50 nM working solution) was added to plate, which was incubated at room temperature for 15 minutes. A 30 μL addition of substrate solution (50 μM acetyl-CoA, 120 μM ATP, 2 mM KHCO3) was used to initiate the reactions which were quenched with 6% acetic acid (40 μL). ACC catalyzed malonyl-CoA formation was detected by LC/MS/MS using a Cohesive Technologies LX Series multiplex LC/MSIMS system configured with four binary pumps (Agilent Technologies; Palo Alto, Calif.), a dual arm autosampler (Leap Technologies; Cary, N.C.), and one Quattro Micro triple quadrupole mass spectrometer (Waters, Milford, Mass.), all run by Aria Software version 1.5 (Cohesive Technologies; Franklin, Mass.). Four samples were injected (20 μL) onto four Phenosphere NEXT C18 30×2 mm 5 μm columns (Phenomenex; Torrance, Calif.), eluted by four separate pumps, running identical gradients, through a column switching manifold with the one outlet fitted to the electrospray (ESI) source. Malonyl-CoA was eluted with 5 mM ammonium acetate, pH 4.5 (Buffer A) and 100% acetonitrile (Buffer B) via a step gradient. Argon was used as the collision gas and the following species were monitored via MRM detection: malonyl-CoA (853.8>346.9), internal standard (A: [^13C3]-malonyl-CoA, 857>350). The lower limit of detection is 0.3 uM for malonyl-CoA in this assay.
Turning to `C[C@@H](NC(=O)[C@H]1CC[C@H](NS(=O)(=O)c2cnc3ccccc3c2)CC1)c1ccc(Cl)cc1` [Example 57, (1r,4R)-N-((R)-1-(4-chlorophenyl)ethyl)-4-(quinoline-3-sulfonamido)cyclohexanecarboxamide], the IC50 was 112 nM. Under `C[C@@H](NC(=O)[C@H]1CC[C@H](NS(=O)(=O)c2cnc3ccccc3c2)CC1)c1ccccc1F` [Example 58, (1r,4R)-N-((R)-1-(2-fluorophenyl)ethyl)-4-(quinoline-3-sulfonamido)cyclohexanecarboxamide] stands 185 nM.

With `O=C([C@H]1CC[C@H](NS(=O)(=O)c2cnc3ccccc3c2)CC1)N1CCCCC1c1ccccc1` (some centres unmarked) [Example 59, N-((1r,4r)-4-(2-phenylpiperidine-1-carbonyl)cyclohexyl)quinoline-3-sulfonamide], the IC50 came to 339 nM. To `CC(C)(C)OC(=O)N1CCN(C(=O)[C@H]2CC[C@H](NS(=O)(=O)c3cnc4ccccc4c3)CC2)C(c2ccccc2)C1` (some centres unmarked) [Example 60, tert-butyl 3-phenyl-4-((1r,4r)-4-(quinoline-3-sulfonamido)cyclohexanecarbonyl)piperazine-1-carboxylate] belongs 131 nM; to `O=C([C@H]1CC[C@H](NS(=O)(=O)c2cnc3ccccc3c2)CC1)N1CCNCC1c1ccccc1` (some centres unmarked) [Example 61, N-((1r,4r)-4-(2-phenylpiperazine-1-carbonyl)cyclohexyl)quinoline-3-sulfonamide], 98 nM. `CC(NC(=O)[C@H]1CC[C@H](NS(=O)(=O)c2cnc3ccccc3c2)CC1)c1cnn(C)c1` (some centres unmarked) [Example 62, (1r,4r)-N-(1-(1-methyl-1H-pyrazol-4-yl)ethyl)-4-(quinoline-3-sulfonamido)cyclohexanecarboxamide]: the IC50 was more than 35000 nM.

Consider `Cc1c(C(F)(F)F)nc2cccc(S(=O)(=O)N[C@H]3CC[C@H](C(=O)N[C@H](C)c4ccc(F)cc4)CC3)n12` [Example 63, (1r,4R)-N-((R)-1-(4-fluorophenyl)ethyl)-4-(3-methyl-2-(trifluoromethyl)imidazo[1,2-a]pyridine-5-sulfonamido)cyclohexanecarboxamide], for which the IC50 was more than 35000 nM. To `C[C@@H](NC(=O)[C@H]1CC[C@H](NS(=O)(=O)c2ccc3nc(OC4COC4)ccc3c2)CC1)c1ccc(F)cc1` [Example 64, (1r,4R)-N-((R)-1-(4-fluorophenyl)ethyl)-4-(2-(oxetan-3-yloxy)quinoline-6-sulfonamido)cyclohexanecarboxamide] belongs 42 nM. `C[C@@H](NC(=O)[C@H]1CC[C@H](NS(=O)(=O)c2cccc3nc(-c4ccccc4)cn23)CC1)c1ccc(F)cc1` [Example 65, (1r,4R)-N-((R)-1-(4-fluorophenyl)ethyl)-4-(2-phenylimidazo[1,2-a]pyridine-5-sulfonamido)cyclohexanecarboxamide]: the IC50 was 149 nM. Take `CC(NC(=O)[C@H]1CC[C@H](NS(=O)(=O)c2cnc3ccccc3c2)CC1)c1ccc(F)c(F)c1` (some centres unmarked) [Example 66, (1r,4r)-N-(1-(3,4-difluorophenyl)ethyl)-4-(quinoline-3-sulfonamido)cyclohexanecarboxamide]: the IC50 came out at 205 nM.

With `CC(NC(=O)[C@H]1CC[C@H](NS(=O)(=O)c2cnc3ccccc3c2)CC1)c1ccc(F)cc1F` (some centres unmarked) [Example 67, (1r,4r)-N-(1-(2,4-difluorophenyl)ethyl)-4-(quinoline-3-sulfonamido)cyclohexanecarboxamide], the IC50 worked out at 240 nM. Under `COCCOc1ccc2cc(S(=O)(=O)N[C@H]3CC[C@H](C(=O)N[C@H](C)c4ccc(F)cc4)CC3)ccc2n1` [Example 68, (1r,4R)-N-((R)-1-(4-fluorophenyl)ethyl)-4-(2-(2-methoxyethoxy)quinoline-6-sulfonamido)cyclohexanecarboxamide] stands 70 nM; under `C[C@@H](NC(=O)[C@H]1CC[C@H](NS(=O)(=O)c2ccc3nc(OCCN(C)C)ccc3c2)CC1)c1ccc(F)cc1` [Example 69, (1r,4R)-4-(2-(2-(dimethylamino)ethoxy)quinoline-6-sulfonamido)-N-((R)-1-(4-fluorophenyl)ethyl)cyclohexanecarboxamide], 50 nM.

As for `Cc1c(-c2ccccc2)nc2ccc(S(=O)(=O)N[C@H]3CC[C@H](C(=O)N[C@H](C)c4ccc(F)cc4)CC3)cn12` [Example 70, (1r,4R)-N-((R)-1-(4-fluorophenyl)ethyl)-4-(3-methyl-2-phenylimidazo[1,2-a]pyridine-6-sulfonamido)cyclohexanecarboxamide], the IC50 worked out at 165 nM.

Turning to `C=Cc1ccc2cc(S(=O)(=O)N[C@H]3CC[C@H](C(=O)N[C@H](C)c4ccc(F)cc4)CC3)ccc2n1` [Example 71, (1r,4R)-N-((R)-1-(4-fluorophenyl)ethyl)-4-(2-vinylquinoline-6-sulfonamido)cyclohexanecarboxamide], the IC50 was found to be 405 nM. Regarding `Cc1ccc2cc(S(=O)(=O)N[C@H]3CC[C@H](C(=O)N[C@H](C)c4ccc(F)cc4)CC3)ccc2n1` [Example 72, (1r,4R)-N-((R)-1-(4-fluorophenyl)ethyl)-4-(2-methylquinoline-6-sulfonamido)cyclohexanecarboxamide], the IC50 is 115 nM. Under `CCOC(=O)COc1ccc2cc(S(=O)(=O)N[C@H]3CC[C@H](C(=O)N[C@H](C)c4ccc(F)cc4)CC3)ccc2n1` [Example 73, ethyl 2-(6-(N-((1R,4r)-4-((R)-1-(4-fluorophenyl)ethylcarbamoyl)cyclohexyl)sulfamoyl)quinolin-2-yloxy)acetate] stands 175 nM. Under `CCc1ccc2cc(S(=O)(=O)N[C@H]3CC[C@H](C(=O)N[C@H](C)c4ccc(F)cc4)CC3)ccc2n1` [Example 74, (1r,4R)-4-(2-ethylquinoline-6-sulfonamido)-N-((R)-1-(4-fluorophenyl)ethyl)cyclohexanecarboxamide] stands 160 nM. As to `Cc1ccccc1-c1nc2cc(S(=O)(=O)N[C@H]3CC[C@H](C(=O)N[C@H](C)c4ccc(F)cc4)CC3)cnc2s1` [Example 75, (1r,4R)-N-((R)-1-(4-fluorophenyl)ethyl)-4-(2-o-tolylthiazolo[5,4-b]pyridine-6-sulfonamido)cyclohexanecarboxamide], the IC50 was found to be 95 nM. Turning to `Cc1ccccc1-c1nc2cc(S(=O)(=O)N[C@H]3CC[C@H](C(=O)N[C@H](C)c4ccc(F)cc4)CC3)cnc2o1` [Example 76, (1r,4R)-N-((R)-1-(4-fluorophenyl)ethyl)-4-(2-o-tolyloxazolo[5,4-b]pyridine-6-sulfonamido)cyclohexanecarboxamide], the IC50 came to 590 nM. Consider `CCC1CCc2cc(S(=O)(=O)N[C@H]3CC[C@H](C(=O)N[C@H](C)c4ccc(F)cc4)CC3)ccc2N1` (stereo partly drawn) [Example 77, (1r,4R)-4-(2-ethyl-1,2,3,4-tetrahydroquinoline-6-sulfonamido)-N-((R)-1-(4-fluorophenyl)ethyl)cyclohexanecarboxamide], for which the IC50 was found to be 50 nM. As to `C[C@@H](NC(=O)[C@H]1CC[C@H](NS(=O)(=O)c2ccc3nc(OCC(=O)O)ccc3c2)CC1)c1ccc(F)cc1` [Example 78, 2-(6-(N-((1R,4r)-4-((R)-1-(4-fluorophenyl)ethylcarbamoyl)cyclohexyl)sulfamoyl)quinolin-2-yloxy)acetic acid], the IC50 was determined as 470 nM. As to `C[C@@H](NC(=O)[C@H]1CC[C@H](NS(=O)(=O)c2ccc3nc(-c4ccccc4)cn3c2)CC1)c1ccc(F)cc1` [Example 79, (1r,4R)-N-((R)-1-(4-fluorophenyl)ethyl)-4-(2-phenylimidazo[1,2-a]pyridine-6-sulfonamido)cyclohexanecarboxamide], the IC50 is 115 nM. For the molecule `C[C@@H](NC(=O)[C@H]1CC[C@H](NS(=O)(=O)c2ccc3nc(OC(C)(C)CO)ccc3c2)CC1)c1ccc(F)cc1` [Example 80, (1r,4R)-N-((R)-1-(4-fluorophenyl)ethyl)-4-(2-(1-hydroxy-2-methylpropan-2-yloxy)quinoline-6-sulfonamido)cyclohexanecarboxamide], the IC50 is 40 nM.

As to `C[C@@H](NC(=O)[C@H]1CC[C@H](NS(=O)(=O)c2ccc3nc(OCC(C)(C)O)ccc3c2)CC1)c1ccc(F)cc1` [Example 81, (1r,4R)-N-((R)-1-(4-fluorophenyl)ethyl)-4-(2-(2-hydroxy-2-methylpropoxy)quinoline-6-sulfonamido)cyclohexanecarboxamide], the IC50 was determined as 95 nM. Regarding `CCOc1ccc2cc(S(=O)(=O)N[C@H]3CC[C@H](C(=O)N[C@H](C)c4ccccn4)CC3)ccc2n1` [Example 82, (1r,4R)-4-(2-ethoxyquinoline-6-sulfonamido)-N-((R)-1-(pyridin-2-yl)ethyl)cyclohexanecarboxamide], the IC50 is 845 nM.
